Our source for the EC50 and CC50 values is ChEMBL document CHEMBL1156829 (Proc Natl Acad Sci U S A, 2008).

Some results are limits rather than exact numbers.

The test system of data set [1] is Plasmodium falciparum. The experiment in a line: NOVARTIS: Inhibition of Plasmodium falciparum 3D7 (drug-susceptible) proliferation in erythrocyte-based infection assay. The class given is functional, organism-based. The following applies: Plasmodium falciparum, 3D7.
Data set [2] relates to Plasmodium falciparum. The experiment in a line: NOVARTIS: Inhibition of Plasmodium falciparum W2 (drug-resistant) proliferation in erythrocyte-based infection assay. The following applies: Plasmodium falciparum, W2; read-out: EC50. Type of data set: functional, organism-based.
Data set [3] can be described thus: NOVARTIS: Cytotoxicity against human hepatocellular carcinoma cell line (Huh7). Type of data set: toxicity, cell-based, Huh-7. The following applies: Huh7 cells (hepatocellular carcinoma cell line).

As for `COc1cc(C=C(C#N)c2nc3ccccc3[nH]2)ccc1OCc1ccccc1`, the figures for the EC50 in data set [1] and in data set [2] were 766 nM and 1590 nM, respectively. Moreover, in data set [3], the CC50 (commonly the concentration that lowers cell viability or growth by half) was more than 100000 nM.
For `O=[N+]([O-])c1ccc(C=NN2CCN(Cc3ccccc3Cl)CC2)cc1`, in that order: more than 7220 nM, more than 1590 nM and more than 100000 nM.
Turning to `c1ccc(OCCOc2ccc(Nc3ccnc4cc5ccccc5cc34)cc2)cc1`, the EC50 – broadly, the midpoint of the concentration-response curve – turned out to be 124 nM in data set [1] and 97.5 nM in data set [2]. This molecule also registered a CC50 in data set [3] of 6110 nM.
Turning to `O=C(c1cc2n(n1)C(C(F)(F)F)CC(c1ccc3c(c1)OCO3)N2)N1CCN(C(c2ccccc2)c2ccccc2)CC1` (stereo not given), the EC50 turned out to be 5260 nM in data set [1] and 1600 nM in data set [2]. In data set [3], the CC50 is more than 100000 nM.
For `COc1cccc(CCOc2ccc3c(c2)C(=O)N(C(CC(C)C)C(=O)NC2CCN(Cc4ccccc4)CC2)[C@@H](Cc2ccc(O)cc2)C(=O)N3)c1` (stereo not given in full), in that order: 502 nM, 158 nM and more than 10000 nM.
The like results for `CCCCCCCC(=O)N1CCN(CCN(Cc2ccc(F)cc2)C(=O)c2c(-c3c(F)cccc3Cl)noc2C)CC1` were, in that order, 1760 nM, 1660 nM and more than 100000 nM.
For `CCN(CC)c1nc(Nc2cc(C)ccc2C)nc(Nc2ccccc2O)n1`, in that order: 439 nM, 159 nM and more than 10000 nM.
For `CC(C)NCC(O)Cn1c2ccc(Br)cc2c2cc(Br)ccc21` (stereo not given), the EC50 in data set [1] is 216 nM; in data set [2] it was 54.4 nM. For the same molecule, the midpoint of cytotoxicity in data set [3], the CC50, lay at 3360 nM.
As to `Oc1c(C(Nc2ccccn2)c2ccc(Cl)cc2Cl)ccc2cccnc12` (stereo not given), the EC50 was more than 1300 nM in data set [1] and 160 nM in data set [2]. This molecule had a CC50 in data set [3] of more than 10000 nM.
The like results for `CC(c1nc2ccccc2c(=O)n1-c1ccccc1Cl)N(Cc1ccccc1)C(=O)Nc1cccc(Br)c1` (stereo not given) were, in that order, more than 1250 nM, more than 159 nM and more than 10000 nM.
For the molecule `COc1cc2c(c(OC)c1CN1CCN(c3ccccc3)CC1)C(=O)c1ccccc1C2=O`, the EC50 in data set [1] worked out at 130 nM; in data set [2], 166 nM. The CC50 in data set [3] is more than 10000 nM.
As to `C=C[C@H]1CN2CC[C@H]1C[C@H]2[C@H](OC(=O)CC)c1ccnc2ccccc12`, the figures for the EC50 in data set [1] and in data set [2] were 364 nM and 166 nM, respectively. Further, the CC50 in data set [3] is more than 10000 nM.
As for `Cc1ccc2nc(C(C#N)=Cc3cn(Cc4ccc(Cl)cc4Cl)nc3-c3ccccc3)[nH]c2c1`, the EC50 is 1820 nM in data set [1] and 1590 nM in data set [2]. Moreover, the CC50 in data set [3] was more than 100000 nM.
The like results for `CCCCCC(=O)NCCCCCCNc1ccnc2cc(Cl)ccc12` were, in that order, 254 nM, 222 nM and more than 13900 nM.
In the case of `CC(C)N(C(=O)Cn1ccc(=N)c2ccccc21)C(C)C`, the EC50 in data set [1] worked out at 1240 nM; in data set [2], 1650 nM. For the same molecule, the CC50 in data set [3] was more than 100000 nM.
As for `CC(=O)N(C1=C(N2CCOCC2)C(=O)c2ccccc2C1=O)c1ccc(F)c(F)c1`, the half-maximal effective concentration (EC50) was 74.3 nM in data set [1] and 57.5 nM in data set [2]. In addition, in data set [3], the midpoint of cytotoxicity, the CC50, lay at 3480 nM.
For `O=C1CN(C(=O)COC(=O)c2ccccc2NCCc2ccc(F)cc2)c2ccccc2N1`, in that order: 219 nM, 165 nM and more than 10000 nM.
`OCCNc1nc(Nc2ccc(Cl)c(Cl)c2)nc2ccccc12`: the EC50 in data set [1] turned out to be 140 nM; in data set [2], 154 nM. In data set [3], this molecule displayed a CC50 of 9400 nM.
Regarding `CCCCCc1ccc(OCCCC[n+]2cccc(C)c2)c(CCCCC)c1`, the EC50 in data set [1] amounted to 713 nM; in data set [2], 336 nM. Also, the cytotoxic concentration (CC50) in data set [3] was 20500 nM.
Regarding `O=[N+]([O-])c1ccc(N2CCN(C(=S)Nc3ccccc3)CC2)cc1`, the EC50 in data set [1] was determined as 6010 nM; in data set [2], 1640 nM. Also, the CC50 in data set [3] was more than 100000 nM.
For `COc1ccc(CCNc2ncnc3c2[nH]c2ccccc23)cc1`, in that order: 299 nM, 401 nM and 24900 nM.
Regarding `CCC(C)(C)c1ccc(OCCCC[n+]2ccc(C)cc2)c(C(C)(C)CC)c1`, the EC50 in data set [1] is 532 nM; in data set [2], 193 nM. The CC50 in data set [3] came to 12000 nM.
Take `CCOC(=O)c1cnc2c(ccc3ccccc32)c1Nc1ccc(NC(C)=O)cc1`: the EC50 in data set [1] was found to be 6900 nM; in data set [2], 1610 nM. Moreover, in data set [3], the cytotoxic concentration (CC50) was more than 100000 nM.
`COc1ccc(-n2cnc3cc(NCc4nc5ccccc5n4C)ccc32)cc1`: the values for the EC50 in data set [1] and in data set [2] were 912 nM and 906 nM, respectively. In data set [3], this molecule came in with a cytotoxic concentration (CC50) of 56800 nM.
Turning to `CCc1ccc2ncc(C(=O)OCCOC)c(O)c2c1`, the EC50 in data set [1] was 777 nM; in data set [2] it was 1620 nM. In data set [3], this molecule came in with a CC50 of more than 100000 nM.
For `COc1nc(Nc2ccc(C(C)C)cc2)nc(OC)n1`, in that order: 677 nM, 935 nM and 56900 nM.
In the case of `COc1nc(C)nc(NC(=O)NC(=O)c2c(OC)ccc([N+](=O)[O-])c2OC)n1`, the EC50 in data set [1] was more than 266 nM; in data set [2], more than 164 nM. Further, in data set [3], the CC50 is more than 10000 nM.
For `Nc1ccc(-c2nc3cc(Oc4ccc(Oc5ccc6[nH]c(-c7ccc(N)cc7)nc6c5)cc4)ccc3[nH]2)cc1`, the values for the 50% effective concentration (EC50) in data set [1] and in data set [2] were 288 nM and 246 nM, respectively. Further, in data set [3], the CC50 amounted to 15000 nM.
Take `Cc1ccc(-c2c[n+](-c3ccccc3)c3n2CCCS3)cc1`: the EC50 came to 735 nM in data set [1] and 1640 nM in data set [2]. Further, the CC50 in data set [3] was more than 100000 nM.
Turning to `COC(=O)c1ccc(S(=O)(=O)N2CCC3(CC2)Nc2ccccc2-n2cccc23)cc1`, the EC50 was more than 1250 nM in data set [1] and more than 163 nM in data set [2]. Moreover, the CC50 in data set [3] is more than 10000 nM.
The like results for `Cc1nc(NCCCN(C)C)c2sc3nc4c(cc3c2n1)COC(C)(C)C4` were, in that order, more than 12500 nM, 1630 nM and more than 100000 nM.
For `Cc1sc2sc(-c3ccccc3)c(N)[n+]2c1C`, in that order: 1050 nM, 1630 nM and more than 100000 nM.
In the case of `CCN(CC)CCNc1ncnc2c1[nH]c1ccc(Br)cc12`, the EC50 was found to be 288 nM in data set [1] and 318 nM in data set [2]. Also, the CC50 in data set [3] turned out to be 19500 nM.
The like results for `NCCNc1cc(-c2ccccc2)nc2ccccc12` were, in that order, 318 nM, 375 nM and 23000 nM.
Consider `O=c1c2ccccc2nc2n1CCN2Cc1ccc(Cl)cc1`, for which the EC50 was determined as 1610 nM in data set [1] and 1630 nM in data set [2]. The molecule further showed a CC50 in data set [3] of more than 100000 nM.
For `COc1cccc(OC)c1C(=O)NCCCCNc1ccnc2cc(Cl)ccc12`, in that order: 449 nM, 198 nM and more than 12200 nM.
For `Cc1cc2c(cc1C)-c1c(ssc1=Nc1cccc(C)c1C)C(C)(C)N2`, in that order: 8590 nM, 1620 nM and more than 100000 nM.
The like results for `Cc1nc2ccccc2c(=O)n1NC(=O)c1cccc([N+](=O)[O-])c1` were, in that order, 141 nM, 1610 nM and more than 100000 nM.
`CC(C)N(CCNc1ncnc2c1[nH]c1ccc(Cl)cc12)C(C)C`: the EC50 in data set [1] is 262 nM; in data set [2], 252 nM. Besides, in data set [3], half-maximal cytotoxicity (CC50) was put at 15200 nM.
For the molecule `O=C(CN1CCCC1)Nc1nc(-c2ccc3c(c2)CCN3S(=O)(=O)c2ccccc2)cs1`, the EC50 was 468 nM in data set [1] and 1270 nM in data set [2]. The molecule further yielded a CC50 in data set [3] of more than 76200 nM.
The like results for `CC(C)Cc1nc(N2CCOCC2)c2nnn(Cc3ccccc3)c2n1` were, in that order, 3030 nM, 1650 nM and more than 100000 nM.
For `COc1ccc(C2CC(c3cccs3)=NN2C(=O)CSc2nnc(CNC(=O)c3cccs3)n2-c2cccc(C)c2)cc1` (stereo not given), in that order: 10400 nM, 1610 nM and more than 100000 nM.
For `CCn1ccccc1=Nc1cccc[n+]1CC`, in that order: 1500 nM, 1170 nM and more than 73200 nM.
Regarding `CC(C)(C)c1ccc(-c2nc(C34CC5CC(CC(C5)C3)C4)cs2)cc1`, the figures for the concentration giving a half-maximal response (EC50) in data set [1] and in data set [2] were more than 12500 nM and 1650 nM, respectively. In addition, in data set [3], the CC50 is more than 100000 nM.
The like results for `COc1ccc(-c2cnc3ccc(NCc4cccc(Cl)c4)nn23)cn1` were, in that order, 805 nM, 1130 nM and 68900 nM.
For `CCCC(=O)NC(c1ccc(Cl)cc1)c1ccc2cccnc2c1O` (stereo not given), in that order: 288 nM, 170 nM and 10300 nM.
For `COc1ccc(S(=O)(=O)ON=C2C=C(C(C)C)C(=O)C=C2C)cc1`, in that order: 834 nM, 296 nM and 18300 nM.
On to `Cc1ccc(CNC(=O)c2cc3sc(Cl)cc3n2C)cc1`, for which the figures for the EC50 in data set [1] and in data set [2] were 3130 nM and 1590 nM, respectively. The CC50 in data set [3] is more than 100000 nM.
For `Cc1ccc(CNC(=O)CCCCCn2c(SCc3cccc([N+](=O)[O-])c3)nc3ccsc3c2=O)cc1`, in that order: 6280 nM, 1600 nM and more than 100000 nM.
In the case of `Cc1ccc2[nH]c3c(NCCN4CCCC4)ncnc3c2c1`, the EC50 was determined as 514 nM in data set [1] and 737 nM in data set [2]. Half-maximal cytotoxicity in data set [3] (CC50) was put at 46500 nM.
On to `CC(C)CC(=O)N(C)CCCNc1ccnc2cc(Cl)ccc12`, for which the results for the EC50 in data set [1] and in data set [2] were 740 nM and 121 nM, respectively. Moreover, half-maximal cytotoxicity in data set [3] (CC50) was put at 7440 nM.
For `Cn1c(=O)c2c(nc3n2CC(O)CN3c2ccccc2)n(C)c1=O` (stereo not given), the concentration giving a half-maximal response (EC50) worked out at 72.6 nM in data set [1] and 162 nM in data set [2]. This molecule also had a CC50 in data set [3] of more than 10000 nM.
The like results for `Clc1ccc(OCc2nc3ccccc3n2CCc2ccccc2)cc1` were, in that order, more than 720 nM, 165 nM and more than 10000 nM.
As to `CSc1nc2sc3c(c2c(=O)n1-c1ccccc1)CCN(CCc1ccccc1)C3`, the results for the EC50 in data set [1] and in data set [2] were 859 nM and 1140 nM, respectively. Also, in data set [3], the CC50 was more than 69300 nM.
As to `CC1=[N+](CC(=O)c2ccc(C)cc2)CCn2c(C)ccc21`, the values for the EC50 in data set [1] and in data set [2] were 1050 nM and 1660 nM, respectively. For the same molecule, the CC50 in data set [3] is more than 100000 nM.
